Data taken from PMC11271178, “Effect of Added Salt on the RAFT Polymerization of 2-Hydroxyethyl Methacrylate in Aqueous Media” (Macromolecules, 2024).

Assays:
[1] = cited from earlier work
[2] = Aqueous solubility of HEMA monomer vs added NaCl at 70 °C (gravimetric titration, visual end point); type: physicochemical
Experimental: Deionized water (2.0 g) was added to a pre-weighed vial equipped with a magnetic stir bar. This vial was placed in an oil bath set at 70 °C and allowed to equilibrate for 20 min. HEMA was added to a second pre-weighed vial and then added dropwise to the first vial at 70 °C. After the addition of each drop of HEMA, the aqueous HEMA mixture was stirred at 70 °C for 1 min. Visual inspection was used to judge the point at which the HEMA monomer droplets were no longer fully dissolved. […] This experiment was repeated with the deionized water being replaced with a series of aqueous salt solutions (up to 3 M NaCl).
However, its aqueous solubility strongly depends on the presence of salt. For example, the digital photograph shown in Figure 1 (blue frame) clearly illustrates the transition from fully soluble HEMA in 0–0.6 M NaCl to (partially) immiscible HEMA in the presence of 1.5 M NaCl. This change in physical appearance is used as the “end point” for a series of gravimetric titrations to determine the aqueous solubility of HEMA in various salt solutions at 70 °C. For example, HEMA solubility is reduced from 1305 g dm^–3 in 0.75 M NaCl to just 93 g dm^–3 in 3 M NaCl (see Figure 1). In principle, this should be sufficient for the mode of polymerization to switch from an aqueous dispersion polymerization to an aqueous emulsion polymerization. Moreover, added salt was also expected to lower the critical DP at which PHEMA chains become water-insoluble. Combining the salt-tunable aqueous solubility of HEMA with a suitable salt-tolerant precursor such as PMPC should facilitate a systematic study of the effect of added salt on the polymerization kinetics and copolymer morphology.

C=C(C)C(=O)OCC(F)(F)F [2,2,2-trifluoroethyl methacrylate]
aqueous solubility of monomer [1]: ≤ 1 g dm^–3

C=C(C)C(=O)OCCO [HEMA, 2-hydroxyethyl methacrylate]
aqueous solubility of HEMA ([2]; 0.75 M NaCl, 70 °C): 1305 g dm^–3
aqueous solubility of HEMA ([2]; 3 M NaCl, 70 °C): 93 g dm^–3
solubility at 1 min ([2]; aqueous 1.5 M NaCl solution, water, 1.5 M NaCl, 70 °C, homogeneous at lower, emulsion at higher concentration, read-out: aqueous solubility of HEMA (homogeneous mixture vs emulsion)): ≥ 171 mg/mL
miscibility of HEMA with water ([2]; no added salt): fully miscible with water in all proportions
miscibility of HEMA with water ([2]; up to 0.6 M NaCl, 70 °C): water-miscible in all proportions

C=C(C)C(=O)OCc1ccccc1 [benzyl methacrylate]
aqueous solubility of monomer [1]: ≤ 1 g dm^–3

C=Cc1ccccc1 [styrene]
aqueous solubility of monomer [1]: ≤ 1 g dm^–3
